Test results: patent publication US10004718B2, “Erythropoietin expression promoter” (TOHOKU UNIVERSITY, priority 2012, dated 2018)

Legend:
[1] = system: Leigh cells; assay: Cell death caused by oxidative stress (BSO) in Leigh syndrome patient fibroblasts; type: cell-based, human; conditions: compound 10 μM, 4 days after BSO treatment
Protocol: In Examples 2 to 7 and Reference Example 1 below, an erythropoietin-producing human hepatocellular carcinoma cell Hep3B (obtained from ATCC [American Type Culture Collection]) was cultured and maintained under conditions of 5% CO2/20% O2 and 37° C. in an RPMI1640 (manufactured by Life Technologies, Inc./GIBCO) medium containing 100 U/mL penicillin (manufactured by Life Technologies, Inc./GIBCO), 100 μg/mL streptomycin (manufactured by Life Technologies, Inc./GIBCO), and 10% fetal bovine serum (FBS) (manufactured by Life Technologies, Inc./GIBCO) (hereinafter, referred to as “RPMI1640 common medium 1”). In Example 15 below, Leigh syndrome patients were subjected to skin biopsy to obtain skin fibroblast cells, which were then primarily cultured under conditions of 5% CO2/20% O2 and 37° C. in a DMEM low glucose (manufactured by Life Technologies, Inc./GIBCO) medium containing 100 U/mL penicillin (manufactured by Life Technologies, Inc./GIBCO), 100 μg/mL streptomycin (manufactured by Life Technologies, Inc./GIBCO), and 1% FBS (manufactured by Life Technologies, Inc./GIBCO) (hereinafter, referred to as “DMEM low glucose common medium”) to isolate cells (Leigh cells). In Example 13 below, a human kidney-derived cell line HK-2 (obtained from ATCC) was cultured and maintained under conditions of 5% CO2/20% O2 and 37° C. in a DMEM/F12 (manufactured by Life Technologies, Inc./GIBCO) medium containing 100 U/mL penicillin (manufactured by Life Technologies, Inc./GIBCO), 100 μg/mL streptomycin (manufactured by Life Technologies, Inc./GIBCO), and 10% fetal bovine serum (manufactured by Life Technologies, Inc./GIBCO) (hereinafter, referred to as “DMEM/F12 common medium”). In Example 14 below, a rat islet of Langerhans-derived cell line ISN-1e (kindly provided by Hisamitsu Ishihara, Nihon University School of Medicine) was cultured and maintained under conditions of 5% CO2/20% O2 and 37° C. in an RPMI1640 (manufactured by Life Technologies, Inc./GIBCO) medium containing 10 mM HEPES (manufactured by Sigma-Aldrich Corp.), 2 mM glutamine (manufactured by Sigma-Aldrich Corp.), 50 μM β-mercaptoethanol (manufactured by Sigma-Aldrich Corp.), 100 U/mL penicillin (manufactured by Life Technologies, Inc./GIBCO), 100 μg/mL streptomycin (manufactured by Life Technologies, Inc./GIBCO), and 10% FBS (manufactured by Life Technologies, Inc./GIBCO) (hereinafter, referred to as “RPMI1640 common medium 2”).
The Leigh cells were seeded at 4×10^4 cells/well to a 24-well cell culture plate and then cultured for 24 hours. The glutathione synthesis inhibitor BSO (L-buthionine sulphoximine) (manufactured by Sigma-Aldrich Corp.) was mixed at […] into a medium. After culture for 24 hours in the presence of BSO, each of 5 types of compounds (compounds #2, 4, 5, 21, and 35) was mixed at 10 μM into the medium. After culture for 4 days in the presence of these 5 types of compounds, the number of live cells was measured using Cell Counting Kit-8 (manufactured by Dojindo Laboratories) to calculate the survival rate of the cells (“BSO+#2”, “BSO+#4”, “BSO+#5”, “BSO+#21”, and “BSO+#35” of FIG. 17). […]

[2] = system: mRNA expression of the erythropoietin gene; assay: Quantitative PCR of erythropoietin mRNA in Hep3B cells; type: cell-based, human; conditions: compound 10 μM, 20% O2, GAPDH internal standard
Protocol: Of the 5 types of compounds confirmed in Example 4 to be effective for promoting the transcriptional activity of the erythropoietin gene promoter, 4 types of compounds (compounds #2, 4, 5, and 21) were selected. From Hep3B cells cultured in RPMI1640 common medium 1 supplemented with each of these 4 types of compounds at a concentration of 10 μM, total RNA was extracted using TriPure Isolation Reagent (manufactured by F. Hoffmann La Roche AG) in a 6-well cell culture plate. Hep3B cells cultured in the absence of the compound (DMSO added) (“20% O2/DMSO” of FIG. 4) were used as a negative control. Hep3B cells cultured in the presence of a GATA-specific inhibitor (K7174 [10 μM]) (“20% O2/K7174” of FIG. 4) and Hep3B cells cultured under hypoxia (1% O2) conditions and in the absence of the compound (DMSO added [1%]) (“1% O2/DMSO” of FIG. 4) were used as positive controls.
The extracted RNA was used as a template to synthesize cDNA using SuperScript III RTS First-strand kit (manufactured by Invitrogen Corp.). Then, the expression of the erythropoietin mRNA was measured by quantitative PCR with GAPDH as an internal standard. The quantitative PCR was carried out using TaqMan® Gene Expression Assays (using GAPDH; Assay ID: Rn99999916_s1, and human erythropoietin; Assay ID: Hs00171267_ml TaqMan® probes [manufactured by Applied Biosystems Inc.]) and Step One Plus Real-Time PCR System (manufactured by Applied Biosystems Inc.).

[3] = system: HIF-α; assay: HIF-α concentration in Hep3B cells (Total HIF-1α Cell-Based ELISA); set-up: species or system human; conditions: compound 10 μM, 20% O2, 24 hours
Protocol: The Hep3B cells were seeded at 1×10^4 cells/well to a 24-well cell culture plate and then cultured under normal oxygen (20% O2) for 24 hours. Each of 3 types of compounds (compounds #4, 21, and 35) was mixed at a concentration of 10 μM into RPMI1640 common medium 1. After further culture under normal oxygen (20% O2) for 24 hours, the concentration of HIF-α produced in the medium was measured using Total HIF-1 α Cell-Based ELISA Kit (manufactured by R&D Systems, Inc.). Hep3B cells cultured in the absence of the compound (DMSO added [1%]) (“Control” of FIG. 5) were used as a negative control. Hep3B cells cultured in the presence of HIF activators (FG-4592 [10 μM], DMOG [10 μM], and ciclopirox[10 μM]) (“FG”, “DMOG”, and “Ciclo”, respectively, of FIG. 5) were used as positive controls.

| SMILES | cell death of the Leigh cells by BSO [1] | mRNA expression level of the erythropoietin gene [2] | HIF-α concentration in the Hep3B cells [3] |
| --- | --- | --- | --- |
| O=C(CC(C(=O)O)c1c[nH]c2ccccc12)c1ccc(F)cc1F (centres unmarked) [compound #5, 4-(2,4-Difluorophenyl)-2-(1H-indol-3-yl)-4-oxo-butanoic acid] | efficiently suppress the cell death | increase the mRNA expression level | – |
| O=C(CC(C(=O)O)c1c[nH]c2ccccc12)c1ccc(F)cc1 (centres unmarked) [compound #4, 4-(4-Fluorophenyl)-2-(1H-indol-3-yl)-4-oxo-butanoic acid] | efficiently suppress the cell death | increase the mRNA expression level | increase the HIF-α concentration |
| O=C(O)C(CCCC(F)(F)C(F)(F)F)c1c[nH]c2ccccc12 (stereo not drawn) [compound #21, α-(4,4,5,5,5-Pentafluoro-1-pentyl)-3-indoleacetic acid] | efficiently suppress the cell death | increase the mRNA expression level | increase the HIF-α concentration |
